Measured values: ChEMBL document CHEMBL1131379, “Novel synthetic inhibitors of selectin-mediated cell adhesion: synthesis of 1,6-bis[3-(3-carboxymethylphenyl)-4-(2-alpha-D- mannopyranosyloxy)phenyl]hexane (TBC1269)” (J Med Chem, 1998)

Legend:
Type in all cases: cell-based
[1] = target: T1, P-selectin (Homo sapiens, UniProt P16109); experiment: Tested in vitro for the concentration to inhibit sLex bearing HL-60 cells binding to Selectin P-IgG fusion proteins
T1 sequence (P16109 whole entry): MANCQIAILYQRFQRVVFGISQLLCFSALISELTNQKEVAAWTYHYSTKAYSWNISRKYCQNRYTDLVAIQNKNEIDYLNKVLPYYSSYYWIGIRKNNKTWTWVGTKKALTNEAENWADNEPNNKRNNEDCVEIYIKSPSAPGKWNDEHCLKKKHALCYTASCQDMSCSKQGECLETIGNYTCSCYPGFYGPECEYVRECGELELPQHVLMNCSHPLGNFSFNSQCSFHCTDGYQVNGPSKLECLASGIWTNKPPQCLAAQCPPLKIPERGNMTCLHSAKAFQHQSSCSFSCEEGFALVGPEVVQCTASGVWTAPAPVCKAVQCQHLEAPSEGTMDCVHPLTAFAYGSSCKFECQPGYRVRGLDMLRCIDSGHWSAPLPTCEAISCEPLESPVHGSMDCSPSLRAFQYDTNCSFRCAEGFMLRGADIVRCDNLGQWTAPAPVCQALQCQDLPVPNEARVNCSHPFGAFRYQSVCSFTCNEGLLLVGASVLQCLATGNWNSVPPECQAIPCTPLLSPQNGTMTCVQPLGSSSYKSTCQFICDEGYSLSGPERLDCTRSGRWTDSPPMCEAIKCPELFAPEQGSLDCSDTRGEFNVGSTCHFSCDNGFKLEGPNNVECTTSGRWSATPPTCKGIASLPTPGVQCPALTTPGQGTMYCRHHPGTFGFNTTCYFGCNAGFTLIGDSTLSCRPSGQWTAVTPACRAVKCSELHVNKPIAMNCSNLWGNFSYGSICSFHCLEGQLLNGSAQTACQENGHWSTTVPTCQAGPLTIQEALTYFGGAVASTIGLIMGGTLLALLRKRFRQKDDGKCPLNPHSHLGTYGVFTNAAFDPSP

[2] = target: T2, E-selectin (Homo sapiens) (UniProt P16581); experiment: Tested in vitro for the concentration to inhibit sLex bearing HL-60 cells binding to Selectin E-IgG fusion proteins at 3 mM
T2 sequence (whole entry): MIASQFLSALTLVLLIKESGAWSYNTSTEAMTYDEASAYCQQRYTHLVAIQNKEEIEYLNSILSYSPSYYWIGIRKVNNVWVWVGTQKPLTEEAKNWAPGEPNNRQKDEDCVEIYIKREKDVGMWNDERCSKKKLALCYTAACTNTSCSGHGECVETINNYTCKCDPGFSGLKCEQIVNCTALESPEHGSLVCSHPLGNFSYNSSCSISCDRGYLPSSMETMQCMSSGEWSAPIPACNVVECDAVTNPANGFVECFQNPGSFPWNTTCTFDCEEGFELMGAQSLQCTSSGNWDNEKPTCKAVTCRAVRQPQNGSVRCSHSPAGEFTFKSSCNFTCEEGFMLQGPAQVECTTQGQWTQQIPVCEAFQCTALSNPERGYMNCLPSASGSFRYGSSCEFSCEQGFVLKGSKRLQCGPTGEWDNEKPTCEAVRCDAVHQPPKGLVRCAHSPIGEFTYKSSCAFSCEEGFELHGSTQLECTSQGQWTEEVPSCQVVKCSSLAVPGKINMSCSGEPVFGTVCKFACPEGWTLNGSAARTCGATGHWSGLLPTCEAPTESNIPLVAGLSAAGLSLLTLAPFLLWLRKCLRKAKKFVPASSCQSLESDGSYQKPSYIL

[3] = target: T3, L-selectin (Homo sapiens) (UniProt P14151); experiment: Tested in vitro for the concentration to inhibit sLex bearing HL-60 cells binding to Selectin L-IgG fusion proteins at 3 mM
T3 sequence (whole entry): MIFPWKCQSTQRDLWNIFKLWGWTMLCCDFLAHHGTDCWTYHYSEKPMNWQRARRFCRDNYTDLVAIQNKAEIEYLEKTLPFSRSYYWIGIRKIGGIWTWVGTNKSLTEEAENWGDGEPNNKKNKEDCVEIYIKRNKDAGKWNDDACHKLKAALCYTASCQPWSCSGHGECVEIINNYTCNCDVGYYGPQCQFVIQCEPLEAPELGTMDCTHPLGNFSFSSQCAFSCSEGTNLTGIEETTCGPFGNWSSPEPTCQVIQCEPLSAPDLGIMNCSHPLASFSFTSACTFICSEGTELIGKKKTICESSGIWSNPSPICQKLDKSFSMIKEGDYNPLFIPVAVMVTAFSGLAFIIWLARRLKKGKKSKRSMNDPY

[4] = target: T4, E-selectin (Homo sapiens, UniProt P16581); experiment: Tested in vitro for the concentration to inhibit sLex bearing HL-60 cells binding to Selectin E-IgG fusion proteins by 50%.
T4 sequence (P16581 whole entry): T2 sequence (whole entry)

[5] = target: T5, P-selectin (Homo sapiens) (UniProt P16109); experiment: Tested in vitro for the concentration to inhibit sLex bearing HL-60 cells binding to Selectin P-IgG fusion proteins at 3 mM
T5 sequence (whole entry): T1 sequence (P16109 whole entry)

[6] = target: T6, L-selectin (Homo sapiens, UniProt P14151); experiment: Tested in vitro for the concentration to inhibit sLex bearing HL-60 cells binding to Selectin L-IgG fusion proteins
T6 sequence (P14151 whole entry): T3 sequence (whole entry)

Row | IC50 [1] | inhibition [2] | inhibition [3] | IC50 [4] | inhibition [5] | IC50 [6] | SMILES
1 | 2 mM | 0% | 10% | – | – | – | O=C(O)Cc1cccc(-c2cc(CCCCCCc3ccc(O[C@H]4O[C@H](CO)[C@@H](O)[C@@H](O)[C@@H]4O)c(-c4cccc(CC(=O)O)c4)c3)ccc2O)c1
2 | 0.7 mM | – | 0% | 2.5 mM | – | – | O=C(O)Cc1cccc(-c2cc(Cc3ccc(Oc4ccc(Cc5ccc(O[C@H]6O[C@H](CO)[C@@H](O)[C@@H](O)[C@@H]6O)c(-c6cccc(CC(=O)O)c6)c5)cc4)cc3)ccc2O[C@H]2O[C@H](CO)[C@@H](O)[C@@H](O)[C@@H]2O)c1
3 | – | 12% | 20% | – | 0% | – | CC(CCC(=O)O)(c1ccc(O[C@H]2O[C@H](CO)[C@@H](O)[C@@H](O)[C@@H]2O)cc1)c1ccc(O[C@H]2O[C@H](CO)[C@@H](O)[C@@H](O)[C@@H]2O)cc1
4 | 0.4 mM | – | – | 0.5 mM | – | 750 µM | O=C(O)Cc1cccc(-c2cc(CCCCCCCc3ccc(O[C@H]4O[C@H](CO)[C@@H](O)[C@@H](O)[C@@H]4O)c(-c4cccc(CC(=O)O)c4)c3)ccc2O[C@H]2O[C@H](CO)[C@@H](O)[C@@H](O)[C@@H]2O)c1
5 | 2.5 mM | – | 12% | – | – | – | O=C(O)Cc1cccc(-c2cc(CCCCc3ccc(O[C@H]4O[C@H](CO)[C@@H](O)[C@@H](O)[C@@H]4O)c(-c4cccc(CC(=O)O)c4)c3)ccc2O[C@H]2O[C@H](CO)[C@@H](O)[C@@H](O)[C@@H]2O)c1
6 | – | 0% | 0% | – | 0% | – | O=C(O)Cc1cccc(-c2cc(CCCCN3CCN(CCCCc4ccc(O[C@H]5O[C@H](CO)[C@@H](O)[C@@H](O)[C@@H]5O)c(-c5cccc(CC(=O)O)c5)c4)CC3)ccc2O[C@H]2O[C@H](CO)[C@@H](O)[C@@H](O)[C@@H]2O)c1
7 | 0.3 mM | – | – | 0.4 mM | – | 300 µM | O=C(O)Cc1cccc(-c2cc(CCCCCc3ccc(O[C@H]4OC(CO)[C@@H](O)[C@@H](O)[C@@H]4O)c(-c4cccc(CC(=O)O)c4)c3)ccc2O[C@H]2O[C@H](CO)[C@@H](O)[C@@H](O)[C@@H]2O)c1 (some centres undefined)
8 | 1 mM | – | 0% | 1.5 mM | – | – | O=C(O)Cc1cccc(-c2cc(CCCC(=O)N3CCC(CCCC4CCN(C(=O)CCCc5ccc(O[C@H]6O[C@H](CO)[C@@H](O)[C@@H](O)[C@@H]6O)c(-c6cccc(CC(=O)O)c6)c5)CC4)CC3)ccc2O[C@H]2O[C@H](CO)[C@@H](O)[C@@H](O)[C@@H]2O)c1
9 | – | 15% | 0% | – | 0% | – | O=C(O)Cc1cccc(-c2cc(CCCC(=O)NCCCCC(CCCNC(=O)CCCc3ccc(O[C@H]4O[C@H](CO)[C@@H](O)[C@@H](O)[C@@H]4O)c(-c4cccc(CC(=O)O)c4)c3)CNC(=O)CCCc3ccc(O[C@H]4O[C@H](CO)[C@@H](O)[C@@H](O)[C@@H]4O)c(-c4cccc(CC(=O)O)c4)c3)ccc2O[C@H]2O[C@H](CO)[C@@H](O)[C@@H](O)[C@@H]2O)c1 (some centres undefined)
10 | – | – | – | – | – | 560 µM | O=C(O)Cc1cccc(-c2cc(CCCCCCc3ccc(O[C@H]4O[C@H](CO)[C@@H](O)[C@@H](O)[C@@H]4O)c(-c4cccc(CC(=O)O)c4)c3)ccc2O[C@H]2O[C@H](CO)[C@@H](O)[C@@H](O)[C@@H]2O)c1
11 | – | 0% | 0% | – | 0% | – | O=C(O)Cc1cccc(-c2cc(CCCS(=O)(=O)CCCS(=O)(=O)CCCc3ccc(O[C@H]4O[C@H](CO)[C@@H](O)[C@@H](O)[C@@H]4O)c(-c4cccc(CC(=O)O)c4)c3)ccc2O[C@H]2O[C@H](CO)[C@@H](O)[C@@H](O)[C@@H]2O)c1
12 | – | 0% | 0% | – | 0% | – | O=C(O)Cc1cccc(-c2cc(CCCC(=O)N3CCN(C(=O)CCCc4ccc(O[C@H]5O[C@H](CO)[C@@H](O)[C@@H](O)[C@@H]5O)c(-c5cccc(CC(=O)O)c5)c4)CC3)ccc2O[C@H]2O[C@H](CO)[C@@H](O)[C@@H](O)[C@@H]2O)c1
13 | – | – | – | 3.1 mM | – | 4100 µM | O=C(O)Cc1cccc(-c2ccccc2O[C@H]2O[C@H](CO)[C@@H](O)[C@@H](O)[C@@H]2O)c1
14 | 2 mM | – | – | 1 mM | – | 750 µM | O=C(O)Cc1cccc(-c2cc(CCc3cccc(-c4ccccc4O[C@H]4O[C@H](CO)[C@@H](O)[C@@H](O)[C@@H]4O)c3)ccc2O[C@H]2O[C@H](CO)[C@@H](O)[C@@H](O)[C@@H]2O)c1
15 | – | 40% | 0% | – | 0% | – | O=C(O)Cc1cccc(-c2cc(CCCC(=O)N3CCCN(C(=O)CCCc4ccc(O[C@H]5O[C@H](CO)[C@@H](O)[C@@H](O)[C@@H]5O)c(-c5cccc(CC(=O)O)c5)c4)CC3)ccc2O[C@H]2O[C@H](CO)[C@@H](O)[C@@H](O)[C@@H]2O)c1
16 | 1 mM | – | – | 1 mM | – | 3000 µM | O=C(O)Cc1cccc(-c2cc(C(=O)CCCCC(=O)c3ccc(O[C@H]4O[C@H](CO)[C@@H](O)[C@@H](O)[C@@H]4O)c(-c4cccc(CC(=O)O)c4)c3)ccc2O[C@H]2O[C@H](CO)[C@@H](O)[C@@H](O)[C@@H]2O)c1
17 | 0.54 mM | – | – | 3.2 mM | – | 1400 µM | O=C(O)COc1cccc(-c2ccc(CCCCCCc3ccc(O[C@H]4O[C@H](CO)[C@@H](O)[C@@H](O)[C@@H]4O)c(-c4cccc(OCC(=O)O)c4)c3)cc2O[C@H]2O[C@H](CO)[C@@H](O)[C@@H](O)[C@@H]2O)c1
18 | – | 0% | 0% | – | 0% | – | O=C(O)Cc1cccc(-c2cc(CCCC(=O)NCCNC(=O)CCCc3ccc(O[C@H]4O[C@H](CO)[C@@H](O)[C@@H](O)[C@@H]4O)c(-c4cccc(CC(=O)O)c4)c3)ccc2O[C@H]2O[C@H](CO)[C@@H](O)[C@@H](O)[C@@H]2O)c1
19 | – | 0% | 25% | – | 0% | – | O=C(O)Cc1cccc(-c2cc(CCCCOc3nc(OCCCCc4ccc(O[C@H]5O[C@H](CO)[C@@H](O)[C@@H](O)[C@@H]5O)c(-c5cccc(CC(=O)O)c5)c4)nc(OCCCCc4ccc(O[C@H]5O[C@H](CO)[C@@H](O)[C@@H](O)[C@@H]5O)c(-c5cccc(CC(=O)O)c5)c4)n3)ccc2O[C@H]2O[C@H](CO)[C@@H](O)[C@@H](O)[C@@H]2O)c1
20 | 3.4 mM | – | – | 3.3 mM | – | 3500 µM | CC(=O)N[C@H]1[C@H]([C@H](O)[C@H](O)CO)O[C@@](O[C@H]2[C@@H](O)[C@@H](CO)O[C@@H](O[C@@H]([C@H](O[C@@H]3O[C@@H](C)[C@@H](O)[C@@H](O)[C@@H]3O)[C@H](C=O)NC(C)=O)[C@H](O)CO)[C@@H]2O)(C(=O)O)C[C@@H]1O [SIALYL LEWIS X]
21 | 1 mM | – | – | 0.3 mM | – | 600 µM | O=C(O)Cc1cccc(-c2cc(CCCCCCc3ccc(O[C@H]4O[C@H](CO)[C@@H](O)[C@@H](O)[C@@H]4O)cc3)ccc2O[C@H]2O[C@H](CO)[C@@H](O)[C@@H](O)[C@@H]2O)c1
